Laboratory results reported in PubChem BioAssay AID1963442 (Molecular Pharmacology Branch, DTP, NCI, 2024).
Where “and” joins values, the source holds several entries; their conditions need not be identical. Identical values can stand only once.

System: MPNST complex spheroid with HUVEC/MSC, growth, % test/control
Experiment: Anticancer human tumor MPNST cell line growth inhibition [Asc];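 also: compounds left on spheroids for seven days before reading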
Conditions: for viability, T/C: stronger effect = lower value
Summary of the method: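 Stromal components (HUVEC and hMSC) are co-assembled with the cancer cells into multicellular spheroids. Drugs are then added singly or paired, at concentrations falling by half-log increments from a clinically achievable maximum, capped at 10 microM without known Cmax.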

NC1CCC(NC2CC2c2ccccc2)CC1 (configuration not stated) + CCN1C(C(=O)NC23CCC(C(=O)O)(CC2)CC3)C(c2cccc(Cl)c2F)C2(C(=O)Nc3cc(Cl)ccc32)C12CCCCC2
IC50 (curve of first compound, second compound 0.03 µM): > 0.1 µM | IC50 (curve of first compound, second compound 0.0949 µM): > 0.1 µM | IC50 (curve of first compound, second compound 0.3 µM): > 0.1 µM | IC50 (curve of first compound, second compound 0.949 µM): > 0.1 µM | IC50 (curve of first compound, second compound 3 µM): > 0.1 µM | viability, T/C (second compound 0.03 µM, first compound 0.000316 µM): 79.1% | viability, T/C (second compound 0.03 µM, first compound 0.001 µM): 72.2% | viability, T/C (second compound 0.03 µM, first compound 0.00316 µM): 67.4% | viability, T/C (second compound 0.03 µM, first compound 0.01 µM): 74.8% | viability, T/C (second compound 0.03 µM, first compound 0.0316 µM): 87% | viability, T/C (second compound 0.03 µM, first compound 0.1 µM): 82.7% | viability, T/C (second compound 0.0949 µM, first compound 0.000316 µM): 98.7% | viability, T/C (second compound 0.0949 µM, first compound 0.001 µM): 87.6% | viability, T/C (second compound 0.0949 µM, first compound 0.00316 µM): 92.6% | viability, T/C (second compound 0.0949 µM, first compound 0.01 µM): 91.5% | viability, T/C (second compound 0.0949 µM, first compound 0.0316 µM): 63.7% | viability, T/C (second compound 0.0949 µM, first compound 0.1 µM): 82.7% | viability, T/C (second compound 0.3 µM, first compound 0.000316 µM): 81.7% | viability, T/C (second compound 0.3 µM, first compound 0.001 µM): 85.7% | viability, T/C (second compound 0.3 µM, first compound 0.00316 µM): 83.8% | viability, T/C (second compound 0.3 µM, first compound 0.01 µM): 90.8% | viability, T/C (second compound 0.3 µM, first compound 0.0316 µM): 69.5% | viability, T/C (second compound 0.3 µM, first compound 0.1 µM): 75% | viability, T/C (second compound 0.949 µM, first compound 0.000316 µM): 87.9% | viability, T/C (second compound 0.949 µM, first compound 0.001 µM): 87.7% | viability, T/C (second compound 0.949 µM, first compound 0.00316 µM): 98% | viability, T/C (second compound 0.949 µM, first compound 0.01 µM): 74.2% | viability, T/C (second compound 0.949 µM, first compound 0.0316 µM): 72.5% | viability, T/C (second compound 0.949 µM, first compound 0.1 µM): 66.7% | viability, T/C (second compound 3 µM, first compound 0.000316 µM): 83.9% | viability, T/C (second compound 3 µM, first compound 0.001 µM): 81.4% | viability, T/C (second compound 3 µM, first compound 0.00316 µM): 60.3% | viability, T/C (second compound 3 µM, first compound 0.01 µM): 59.8% | viability, T/C (second compound 3 µM, first compound 0.0316 µM): 68.9% | viability, T/C (second compound 3 µM, first compound 0.1 µM): 65.8%

Cc1nc(N2CCC3(CC2)COC(C)C3N)c(CO)nc1Sc1ccnc(N)c1Cl (configuration not stated) + Cc1c(S(C)(=O)=O)c(-c2cc(F)cc(N3CCN(c4ccc(NS(=O)(=O)c5ccc(NC(CCN6CCC(C(=O)OCCCP(=O)(O)O)CC6)CSc6ccccc6)c(S(=O)(=O)C(F)(F)F)c5)cc4)CC3)c2)c(-c2ccc(Cl)cc2)n1C(C)C
IC50 (curve of first compound, second compound 0.1 µM): > 3 µM | IC50 (curve of first compound, second compound 0.316 µM): > 3 µM | IC50 (curve of first compound, second compound 1 µM): > 3 µM | IC50 (curve of first compound, second compound 3.16 µM): > 3 µM | IC50 (curve of first compound, second compound 10 µM): > 3 µM | viability, T/C (second compound 0.1 µM, first compound 0.00949 µM): 117% | viability, T/C (second compound 0.1 µM, first compound 0.03 µM): 152% | viability, T/C (second compound 0.1 µM, first compound 0.0949 µM): 143% | viability, T/C (second compound 0.1 µM, first compound 0.3 µM): 121% | viability, T/C (second compound 0.1 µM, first compound 0.949 µM): 104% | viability, T/C (second compound 0.1 µM, first compound 3 µM): 112% | viability, T/C (second compound 0.316 µM, first compound 0.00949 µM): 130% | viability, T/C (second compound 0.316 µM, first compound 0.03 µM): 136% | viability, T/C (second compound 0.316 µM, first compound 0.0949 µM): 157% | viability, T/C (second compound 0.316 µM, first compound 0.3 µM): 125% | viability, T/C (second compound 0.316 µM, first compound 0.949 µM): 117% | viability, T/C (second compound 0.316 µM, first compound 3 µM): 79.5% | viability, T/C (second compound 1 µM, first compound 0.00949 µM): 121% | viability, T/C (second compound 1 µM, first compound 0.03 µM): 148% | viability, T/C (second compound 1 µM, first compound 0.0949 µM): 126% | viability, T/C (second compound 1 µM, first compound 0.3 µM): 135% | viability, T/C (second compound 1 µM, first compound 0.949 µM): 96.2% | viability, T/C (second compound 1 µM, first compound 3 µM): 93.6% | viability, T/C (second compound 3.16 µM, first compound 0.00949 µM): 136% | viability, T/C (second compound 3.16 µM, first compound 0.03 µM): 141% | viability, T/C (second compound 3.16 µM, first compound 0.0949 µM): 164% | viability, T/C (second compound 3.16 µM, first compound 0.3 µM): 108% | viability, T/C (second compound 3.16 µM, first compound 0.949 µM): 117% | viability, T/C (second compound 3.16 µM, first compound 3 µM): 88.3% | viability, T/C (second compound 10 µM, first compound 0.00949 µM): 175% | viability, T/C (second compound 10 µM, first compound 0.03 µM): 159% | viability, T/C (second compound 10 µM, first compound 0.0949 µM): 153% | viability, T/C (second compound 10 µM, first compound 0.3 µM): 108% | viability, T/C (second compound 10 µM, first compound 0.949 µM): 125% | viability, T/C (second compound 10 µM, first compound 3 µM): 94.4%

CCN1CCN(Cc2ccc(Nc3ncc(F)c(-c4cc(F)c5nc(C)n(C(C)C)c5c4)n3)nc2)CC1
viability, T/C (compound 0.00316 µM): 73% and 74.2% and 85.2% | viability, T/C (compound 0.01 µM): 91.6% and 72.8% and 69.6% | viability, T/C (compound 0.0316 µM): 92.8% and 78.2% and 78.8% | viability, T/C (compound 0.1 µM): 70.1% and 54% and 60.7% | viability, T/C (compound 0.316 µM): 84.9% and 63% and 78.3% | viability, T/C (compound 1 µM): 92.1% and 65.1% and 69% | IC50 (curve of compound): > 1 µM
